From ChEMBL document CHEMBL1201862, “PubChem BioAssay data set” (2004)
Activity calls are given as the source filed them.

Columns and labels:
cells = format: functional, cell-based
[1] = target: T1, Nuclear receptor subfamily 0 group B member 1 (Homo sapiens, UniProt P51843); format: functional, cell-based;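 note: HEK293T cells transfected with SF-1 and DAX-1 plus StAR promoter luciferase reporter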
T1 sequence (P51843 whole entry): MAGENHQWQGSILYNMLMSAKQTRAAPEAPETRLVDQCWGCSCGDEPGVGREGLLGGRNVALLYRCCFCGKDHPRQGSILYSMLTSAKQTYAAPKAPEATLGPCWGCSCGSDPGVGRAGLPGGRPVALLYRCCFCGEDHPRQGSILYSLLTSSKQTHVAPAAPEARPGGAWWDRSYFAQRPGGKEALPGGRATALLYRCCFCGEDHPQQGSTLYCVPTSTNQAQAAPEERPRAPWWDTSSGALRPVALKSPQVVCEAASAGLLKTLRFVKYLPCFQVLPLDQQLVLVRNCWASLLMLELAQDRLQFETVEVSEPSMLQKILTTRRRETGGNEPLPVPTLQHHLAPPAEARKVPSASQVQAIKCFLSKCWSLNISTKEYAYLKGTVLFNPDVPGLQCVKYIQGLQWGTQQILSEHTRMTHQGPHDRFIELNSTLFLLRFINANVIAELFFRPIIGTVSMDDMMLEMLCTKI

Cytochrome P450 3A4 = Cytochrome P450 3A4 (Homo sapiens, UniProt P08684);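 note: CYP3A4 tested as one member of a cytochrome P450 panel screen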
Paired box protein Pax-8 = Paired box protein Pax-8 (Homo sapiens, UniProt Q06710); assay: PAX8 transcriptional activity inhibition in RMG-I – RMG-I cells, luciferase, cherry-pick, dose response (AID 687027); format: functional, cell-based;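 note: luciferase reporter driven by Pax8 target thyroperoxidase promoter measured by SteadyGlo luminescence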
Cytochrome P450 1A2 = target: T2, Cytochrome P450 1A2 (Homo sapiens, UniProt P05177);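 note: PubChem cytochrome P450 panel assay, CYP1A2 panel member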
T2 sequence (P05177 whole entry): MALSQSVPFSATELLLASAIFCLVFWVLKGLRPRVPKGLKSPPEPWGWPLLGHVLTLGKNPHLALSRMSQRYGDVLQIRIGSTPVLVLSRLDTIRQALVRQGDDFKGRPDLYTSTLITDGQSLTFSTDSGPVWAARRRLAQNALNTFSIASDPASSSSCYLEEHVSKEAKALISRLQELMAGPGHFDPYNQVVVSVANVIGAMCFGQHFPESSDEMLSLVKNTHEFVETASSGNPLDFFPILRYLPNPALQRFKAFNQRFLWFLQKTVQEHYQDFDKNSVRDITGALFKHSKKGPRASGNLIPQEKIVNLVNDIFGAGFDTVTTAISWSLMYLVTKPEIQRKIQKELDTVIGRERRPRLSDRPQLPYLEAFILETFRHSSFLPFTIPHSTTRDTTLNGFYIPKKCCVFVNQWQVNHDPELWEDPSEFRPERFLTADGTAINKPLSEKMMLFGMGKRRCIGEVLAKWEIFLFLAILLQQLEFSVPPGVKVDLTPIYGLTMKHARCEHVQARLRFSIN

Cytochrome P450 2C9 = Cytochrome P450 2C9 (Homo sapiens, UniProt P11712)
Cytochrome P450 2C19 = Cytochrome P450 2C19 (Homo sapiens, UniProt P33261); assay: Cytochrome panel assay with activity outcomes. Panel member name: p450-cyp2c19 Compounds with AC50 equal or less than 10 uM are considered active; format: functional; conditions: read-out: AC50
Sequence of Cytochrome P450 2C19 (P33261 whole entry): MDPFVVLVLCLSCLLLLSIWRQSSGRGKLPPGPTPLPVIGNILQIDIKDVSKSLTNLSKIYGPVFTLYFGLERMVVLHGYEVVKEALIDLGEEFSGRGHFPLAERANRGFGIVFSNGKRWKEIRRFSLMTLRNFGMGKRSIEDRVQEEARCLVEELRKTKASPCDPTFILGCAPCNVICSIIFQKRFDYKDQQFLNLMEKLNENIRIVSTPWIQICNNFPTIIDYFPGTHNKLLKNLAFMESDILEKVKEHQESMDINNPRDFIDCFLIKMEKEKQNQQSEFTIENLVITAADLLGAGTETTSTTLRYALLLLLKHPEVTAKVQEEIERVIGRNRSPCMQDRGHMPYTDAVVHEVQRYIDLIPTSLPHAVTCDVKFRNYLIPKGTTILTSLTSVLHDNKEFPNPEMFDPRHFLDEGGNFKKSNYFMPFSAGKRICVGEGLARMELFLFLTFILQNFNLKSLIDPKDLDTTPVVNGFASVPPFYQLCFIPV

Sequence of Cytochrome P450 3A4 (P08684 whole entry): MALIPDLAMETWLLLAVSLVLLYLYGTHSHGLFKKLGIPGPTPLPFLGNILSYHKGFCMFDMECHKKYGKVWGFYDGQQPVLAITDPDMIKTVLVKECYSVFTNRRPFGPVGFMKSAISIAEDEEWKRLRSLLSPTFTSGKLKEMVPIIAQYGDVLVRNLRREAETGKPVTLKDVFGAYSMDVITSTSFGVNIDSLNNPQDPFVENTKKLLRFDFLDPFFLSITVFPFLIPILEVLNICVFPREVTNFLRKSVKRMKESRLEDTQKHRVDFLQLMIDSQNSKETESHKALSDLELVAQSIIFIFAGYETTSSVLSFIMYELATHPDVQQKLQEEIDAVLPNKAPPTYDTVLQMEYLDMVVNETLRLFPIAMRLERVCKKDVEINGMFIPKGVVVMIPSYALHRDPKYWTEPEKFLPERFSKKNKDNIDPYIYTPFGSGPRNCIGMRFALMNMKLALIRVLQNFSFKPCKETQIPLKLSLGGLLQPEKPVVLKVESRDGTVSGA
Sequence of Paired box protein Pax-8 (Q06710 whole entry): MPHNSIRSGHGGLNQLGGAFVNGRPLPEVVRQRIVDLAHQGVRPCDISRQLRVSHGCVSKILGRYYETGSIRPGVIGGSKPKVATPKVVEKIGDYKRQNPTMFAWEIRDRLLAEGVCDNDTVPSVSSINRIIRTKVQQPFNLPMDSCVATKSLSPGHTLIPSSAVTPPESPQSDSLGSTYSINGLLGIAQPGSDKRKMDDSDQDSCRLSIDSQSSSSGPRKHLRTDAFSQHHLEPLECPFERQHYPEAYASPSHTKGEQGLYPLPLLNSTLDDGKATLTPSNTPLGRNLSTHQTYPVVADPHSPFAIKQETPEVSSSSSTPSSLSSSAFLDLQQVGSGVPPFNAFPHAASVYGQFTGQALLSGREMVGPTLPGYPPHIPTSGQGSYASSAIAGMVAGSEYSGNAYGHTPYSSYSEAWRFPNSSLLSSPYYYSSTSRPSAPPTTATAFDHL
Sequence of Cytochrome P450 2C9 (P11712 whole entry): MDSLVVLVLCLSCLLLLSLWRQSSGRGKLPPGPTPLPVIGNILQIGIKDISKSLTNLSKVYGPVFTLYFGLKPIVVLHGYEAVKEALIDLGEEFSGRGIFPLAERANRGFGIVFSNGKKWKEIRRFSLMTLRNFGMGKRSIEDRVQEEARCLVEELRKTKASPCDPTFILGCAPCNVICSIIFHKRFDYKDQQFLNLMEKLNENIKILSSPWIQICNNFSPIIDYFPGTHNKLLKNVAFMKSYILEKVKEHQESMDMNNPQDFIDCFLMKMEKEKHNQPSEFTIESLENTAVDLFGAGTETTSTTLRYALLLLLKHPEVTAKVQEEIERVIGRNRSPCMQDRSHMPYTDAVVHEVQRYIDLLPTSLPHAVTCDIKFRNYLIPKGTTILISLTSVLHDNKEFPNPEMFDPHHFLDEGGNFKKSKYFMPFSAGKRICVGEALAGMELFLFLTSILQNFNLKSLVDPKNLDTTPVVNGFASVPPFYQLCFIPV

## CN1CCN(c2ccc(-c3cccc(NC(=O)COc4ccc(Cl)cc4)c3)nn2)CC1
cells
  IC50: > 67.5 µM (inactive)
[1]
  IC50: > 67.5 µM (inactive)

## CC(=Nc1ccccc1)C1=C(O)C(Cc2ccccc2)NC1=O (stereo not drawn)
cells
  IC50: > 67.6 µM (inactive)
[1]
  IC50: 15.8 µM (inactive)

## CCn1c(/C=C2/C(=O)N(C)c3ccccc32)nc2ccccc2c1=O
Cytochrome P450 3A4
  AC50: inconclusive

## CC(=O)Nc1ccc(-c2ccnc3c2CC(C(=O)NCc2ccccc2)O3)cc1 (stereo not drawn)
cells
  IC50: > 67.5 µM (inactive)
Paired box protein Pax-8
  AC50: 1.5 µM (active)
[1]
  IC50: > 67.5 µM (inactive)

## O=C(c1ccc(F)cc1)C1CCN(CCCCc2ccccc2)CC1
Cytochrome P450 3A4
  AC50: inconclusive
Cytochrome P450 1A2
  AC50: 31.6 µM (inconclusive)

## CCCC(=O)N1CCN(c2ccc(NC(=O)c3sc4ccccc4c3Cl)cc2)CC1
Cytochrome P450 2C9
  AC50: 5.01 µM (inconclusive)
Cytochrome P450 3A4
  AC50: inconclusive
Cytochrome P450 2C19
  AC50: 0.158 µM (inconclusive)
